Measurements reported in patent US5036091A, “3-Aryloxazolidinone derivatives, process for their preparation and their use in therapy” (Delalande S.A., priority 1989, dated 1991).

test system: 5-HTP potentialisation; assay: 5-HTP potentialisation assay in rat (antidepressive activity); assay type: in vivo; details: po, compound given orally, 5-HTP intra-peritoneal 1 h after the first treatment, read-out: ED50 (dose which brings about in 50% of the animals generalized shakings or stereotypies consecutive to 5-HTP)
Description: Int. Pharmacodyn. (1982), 259, 194-221. The dose of product which, when given orally, brings about in 50% of the animals (ED50) the appearance of generalized shakings or of stereotypies (trinklings, shakes of head) consecutive to the administration by intra-peritoneal route 1 h after the first treatment of 5-hydroxy-tryptophane (5-HTP) is determined in rat.

In order of falling ED50:
1. Cc1cccc(N2CC(CO)OC2=O)c1 (stereo not shown) [TOLOXATONE, reference compound]  30 mg/kg
2. CCOC[C@H]1CN(c2ccc(OCC[C@@H](O)C(F)(F)F)cc2)C(=O)O1 [MD230197]  2.4 mg/kg
3. COCC1CN(c2ccc(OCCC(C)O)cc2)C(=O)O1 (racemic) [MD370047, 3-[4-(3-hydroxybutoxy)phenyl]-5-methoxymethyl-2-oxazolidinone]  1.9 mg/kg
4. COC[C@H]1CN(c2ccc(CCC[C@@H](C)O)cc2)C(=O)O1 [MD230238, 3-[4-(4(R)-hydroxypentyl)phenyl]-5(R)-methoxymethyl-2-oxazolidinone]  1.9 mg/kg
5. COC[C@H]1CN(c2ccc(OCC[C@H](O)C(F)(F)F)cc2)C(=O)O1 [MD370504, 3-[4-(4,4,4-trifluoro-3(S)-hydroxybutoxy)phenyl]-5(R)-methoxymethyl-2-oxazolidinone]  1.8 mg/kg
6. COC[C@H]1CN(c2ccc(OCC3CCCC3O)cc2)C(=O)O1 (stereo partly drawn) [MD230201, 3-[4-(1-hydroxy-2-cyclopentylmethoxy)phenyl]-5(R)-methoxymethyl-2-oxazolidinone]  1.6 mg/kg
7. COCC1CN(c2ccc(OCCC(O)C(F)(F)F)cc2)C(=O)O1 (racemic) [MD370167, 3-[4-(4,4,4-trifluoro-3-hydroxybutoxy)phenyl]-5-methoxymethyl-2-oxazolidinone]  1.1 mg/kg
8. COC[C@H]1CN(c2ccc(CCCC(C)O)cc2)C(=O)O1 (stereo partly drawn) [MD230082, 3-[4-(4-hydroxypentyl)phenyl]-5(R)-methoxymethyl-2-oxazolidinone]  1.1 mg/kg
9. COC[C@H]1CN(c2ccc(OCC[C@@H](C)O)cc2)C(=O)O1 [MD370120, 3-[4-(3(R)-hydroxybutoxy)phenyl]-5(R)-methoxymethyl-2-oxazolidinone]  0.83 mg/kg
10. COC[C@H]1CN(c2ccc(OCC[C@H](C)O)cc2)C(=O)O1 [MD370122, 3-[4-(3(S)-hydroxybutoxy)phenyl]-5(R)-methoxymethyl-2-oxazolidinone]  0.68 mg/kg
11. COC[C@H]1CN(c2ccc(OCC[C@@H](O)C(F)(F)F)cc2)C(=O)O1 [MD370503, 3-[4-(4,4,4-trifluoro-3(R)-hydroxybutoxy)phenyl]-5(R)-methoxymethyl-2-oxazolidinone]  0.14 mg/kg

test system: not listed separately; assay: acute toxicity in mouse; details: in vivo, po, method of Litchfield and Wilcoxon

In order of rising LD50:
1. COC[C@H]1CN(c2ccc(OCC[C@@H](C)O)cc2)C(=O)O1 [MD370120, 3-[4-(3(R)-hydroxybutoxy)phenyl]-5(R)-methoxymethyl-2-oxazolidinone]  1400 mg/kg
2. COC[C@H]1CN(c2ccc(OCC[C@@H](O)C(F)(F)F)cc2)C(=O)O1 [MD370503, 3-[4-(4,4,4-trifluoro-3(R)-hydroxybutoxy)phenyl]-5(R)-methoxymethyl-2-oxazolidinone]  2500 mg/kg
